Assay results from ChEMBL document CHEMBL5137001, “Examination of multiple Trypanosoma cruzi targets in a new drug discovery approach for Chagas disease” (Bioorg Med Chem, 2022).

Columns and labels:
[1] = molecular target: T1, Triosephosphate isomerase, glycosomal (Trypanosoma cruzi, UniProt P52270); assay: Inhibition of recombinant Trypanosoma cruzi TIM using glyceraldehyde 3-phosphate as substrate
[2] = molecular target: T2, Bifunctional dihydrofolate reductase-thymidylate synthase (Trypanosoma cruzi, UniProt Q27793); assay: Inhibition of recombinant Trypanosoma cruzi DHFR-TS assessed as inhibition constant
T2 sequence (Q27793 whole entry): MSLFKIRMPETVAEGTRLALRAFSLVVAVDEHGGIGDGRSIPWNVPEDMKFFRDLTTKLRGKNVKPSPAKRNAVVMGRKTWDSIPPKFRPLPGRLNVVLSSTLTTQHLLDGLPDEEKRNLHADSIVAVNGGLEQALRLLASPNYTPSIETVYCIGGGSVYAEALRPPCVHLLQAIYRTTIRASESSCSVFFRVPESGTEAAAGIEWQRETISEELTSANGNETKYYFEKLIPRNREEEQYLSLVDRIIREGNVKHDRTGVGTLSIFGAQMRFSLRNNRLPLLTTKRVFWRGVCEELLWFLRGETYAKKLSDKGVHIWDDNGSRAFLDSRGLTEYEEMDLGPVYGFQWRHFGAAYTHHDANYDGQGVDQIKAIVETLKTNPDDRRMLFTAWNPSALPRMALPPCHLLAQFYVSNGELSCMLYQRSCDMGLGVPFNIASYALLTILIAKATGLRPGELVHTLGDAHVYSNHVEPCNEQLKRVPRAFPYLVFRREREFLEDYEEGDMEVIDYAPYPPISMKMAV

[3] = molecular target: T1, Triosephosphate isomerase, glycosomal; assay: Inhibition of Trypanosoma cruzi TIM expressed in Escherichia coli using glyceraldehyde 3-phosphate as substrate preincubated for 2 hrs in presence of NADH/alphaGDPH by spectrophotometry
[4] = molecular target: T1, Triosephosphate isomerase, glycosomal; assay: Inhibition of Trypanosoma cruzi TIM
[5] = molecular target: T1, Triosephosphate isomerase, glycosomal; assay: Inhibition of Trypanosoma cruzi TIM expressed in Escherichia coli using glyceraldehyde 3-phosphate as substrate in presence of NADH/alphaGDPH measured after 2 hrs by spectrophotometry
Cruzipain [6] = molecular target: T3, Cruzipain (Trypanosoma cruzi, UniProt P25779); assay: Inhibition of Trypanosoma cruzi Cruzaine using Z-Phe-Arg-AMC as substrate preincubated for 15 mins measured for 10 mins by […]
T3 sequence (P25779 whole entry): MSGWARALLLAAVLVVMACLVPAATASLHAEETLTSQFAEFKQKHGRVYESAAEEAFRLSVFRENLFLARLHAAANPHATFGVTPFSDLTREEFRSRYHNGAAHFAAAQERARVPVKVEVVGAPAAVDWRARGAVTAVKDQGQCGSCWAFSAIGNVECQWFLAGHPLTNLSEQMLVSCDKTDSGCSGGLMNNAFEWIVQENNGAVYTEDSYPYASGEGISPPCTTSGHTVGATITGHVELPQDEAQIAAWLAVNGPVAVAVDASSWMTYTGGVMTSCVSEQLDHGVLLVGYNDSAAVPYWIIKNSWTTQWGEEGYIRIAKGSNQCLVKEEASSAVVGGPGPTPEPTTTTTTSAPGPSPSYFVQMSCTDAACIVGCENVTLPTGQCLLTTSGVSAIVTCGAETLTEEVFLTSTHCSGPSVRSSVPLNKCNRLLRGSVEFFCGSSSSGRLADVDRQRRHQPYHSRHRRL

Cruzipain [7] = molecular target: T3, Cruzipain; assay: Inhibition of Trypanosoma cruzi Cruzaine
[8] = Inhibition of Trypanosoma cruzi DHODH assessed as inhibition constant measured for 5 mins by spectrophotometry
[9] = molecular target: Sterol 14-alpha demethylase (Trypanosoma cruzi (strain CL Brener), UniProt Q7Z1V1); assay: Displacement of [3H]-Eubricol from C-terminal His-tagged full-length Trypanosoma cruzi Tulahuen strain CYP51 expressed in Escherichia coli HMS174(DE3) assessed as dissociation constant preincubated for 5 mins measured after 60 mins by enzymatic assay
Chain of Sterol 14-alpha demethylase (Q7Z1V1 whole entry): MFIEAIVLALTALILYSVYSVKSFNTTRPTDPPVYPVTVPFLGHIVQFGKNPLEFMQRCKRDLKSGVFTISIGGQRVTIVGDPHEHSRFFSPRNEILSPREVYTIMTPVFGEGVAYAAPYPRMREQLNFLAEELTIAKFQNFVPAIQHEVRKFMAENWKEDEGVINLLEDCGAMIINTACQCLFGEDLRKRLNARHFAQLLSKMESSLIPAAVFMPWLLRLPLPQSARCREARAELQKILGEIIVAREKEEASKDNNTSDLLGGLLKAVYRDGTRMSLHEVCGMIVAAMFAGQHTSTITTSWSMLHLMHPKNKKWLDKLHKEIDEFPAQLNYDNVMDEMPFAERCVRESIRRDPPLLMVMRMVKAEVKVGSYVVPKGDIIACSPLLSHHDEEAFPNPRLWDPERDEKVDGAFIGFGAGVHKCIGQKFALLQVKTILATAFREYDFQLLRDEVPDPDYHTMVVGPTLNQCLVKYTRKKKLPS

Trypanothione reductase [10] = molecular target: T4, Trypanothione reductase (Trypanosoma cruzi, UniProt P28593); assay: Inhibition of Trypanosoma cruzi TR assessed as inhibition constant
T4 sequence (P28593 whole entry): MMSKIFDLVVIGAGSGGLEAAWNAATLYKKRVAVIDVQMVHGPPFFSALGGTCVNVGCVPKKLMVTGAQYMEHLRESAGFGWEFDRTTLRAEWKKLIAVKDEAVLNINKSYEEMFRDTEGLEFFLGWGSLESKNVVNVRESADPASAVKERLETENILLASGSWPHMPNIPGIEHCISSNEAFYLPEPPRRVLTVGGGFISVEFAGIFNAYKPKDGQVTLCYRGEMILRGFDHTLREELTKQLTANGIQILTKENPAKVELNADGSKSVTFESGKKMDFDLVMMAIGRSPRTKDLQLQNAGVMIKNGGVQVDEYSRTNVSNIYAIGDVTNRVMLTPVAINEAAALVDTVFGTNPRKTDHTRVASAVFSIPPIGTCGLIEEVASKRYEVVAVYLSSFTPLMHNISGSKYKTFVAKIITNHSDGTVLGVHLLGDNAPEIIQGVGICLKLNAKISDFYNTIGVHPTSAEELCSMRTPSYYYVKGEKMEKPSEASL

Trypanothione reductase [11] = molecular target: T4, Trypanothione reductase; assay: Inhibition of Trypanosoma cruzi TR assessed as inhibition constant in presence of NADPH
Cruzipain [12] = molecular target: T3, Cruzipain; assay: Inhibition of Cruzaine derived from epimastigotes of Trypanosoma cruzi Tul2 strain using Z-FR-AMC as substrate assessed as release of 7-amino-4-methylcoumarin by fluorimetry
[13] = molecular target: T2, Bifunctional dihydrofolate reductase-thymidylate synthase; assay: Inhibition of Trypanosoma cruzi DHFR-TS assessed as inhibition constant using DHF as substrate in presence of NADPH by spectrophotometry
[14] = molecular target: T2, Bifunctional dihydrofolate reductase-thymidylate synthase; assay: Inhibition of Trypanosoma cruzi DHFR-TS in presence of NADPH by spectrophotometry
[15] = Inhibition of Trypanosoma cruzi PTR1 using folic acid as substrate in presence of NADPH by spectrophotometry

T1 sequence (P52270 whole entry): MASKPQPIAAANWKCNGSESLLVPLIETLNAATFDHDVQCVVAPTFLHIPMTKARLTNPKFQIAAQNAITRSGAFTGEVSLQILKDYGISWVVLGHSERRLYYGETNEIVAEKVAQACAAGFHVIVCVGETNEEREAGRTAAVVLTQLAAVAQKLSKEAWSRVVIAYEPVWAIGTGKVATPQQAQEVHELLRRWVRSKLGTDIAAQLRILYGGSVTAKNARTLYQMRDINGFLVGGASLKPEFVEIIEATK

SMILES: O=S(=O)(O)CCCSc1nc2ccccc2s1
- IC50 [1]: 33 µM

SMILES: CC(C)Oc1cccc(Cc2cnc(N)nc2N)c1
- Ki [2]: 0.023 µM

SMILES: Cc1ccc2nc(-c3ccc4nc(-c5ccc(N)cc5)sc4c3)sc2c1S(=O)(=O)O
- IC50 [1]: 8 µM

SMILES: [O-][NH+]1c2ccc(O)cc2[NH+]([O-])c2cc(Cl)c(Cl)cc21 (configuration not stated)
- IC50 [3]: 26 µM

SMILES: O=C(/C=C/C=C/c1ccco1)/C=C/C=C/c1ccco1
- IC50 [4]: 3 µM

SMILES: COc1ccc(-c2c/c(=[S+]/CC(C)=O)ss2)cc1
- IC50 [5]: 11 µM

SMILES: O=C1/C(=C/C=C/c2ccco2)CCC/C1=C\C=C\c1ccco1
- IC50 (Cruzipain [6]): 37 µM

SMILES: CCOC(=O)/C=C/C(=O)[C@H](CC(C)C)NC(=O)[C@@H](CC(=O)c1ccccc1)Cc1ccccc1
- IC50 (Cruzipain [7]): 20 µM

SMILES: O=C1NC(=O)C(CCc2ccc3cc(C(=O)O)ccc3c2)C(C(=O)O)N1 (configuration not stated)
- Ki [8]: 0.02 µM

SMILES: OC(Cn1cnnn1)(c1ccc(F)cc1F)C(F)(F)c1ccc(-c2ccc(OCC(F)(F)F)cn2)cn1 (configuration not stated)
- Kd [9]: 0.024 µM

SMILES: O=C(CSc1nc2ccccc2[nH]1)Nc1ncc([N+](=O)[O-])s1
- IC50 [4]: 3 µM

SMILES: Nc1ncc(Cc2ccc(Oc3ccccc3)cc2)c(N)n1
- Ki [2]: 0.03 µM

SMILES: CC(C)CC(=O)c1ccc2c(c1)[n+]([O-])c(C(=O)C(C)C)c(C(F)(F)F)[n+]2[O-]
- Ki (Trypanothione reductase [10]): 19 µM

SMILES: CN1CCN(CCn2ccc3cc(-c4ncc(C5(N6CCCC6)CCCCC5)s4)ccc32)CC1
- Ki (Trypanothione reductase [10]): 3.8 µM

SMILES: COc1ccc(NC(=O)COC(=O)C(CC(C)C)N2C(=O)C(Cl)=C(Cl)C2=O)cc1 (configuration not stated)
- IC50 (Cruzipain [7]): 0.6 µM

SMILES: O=C1C(Br)=C(Oc2ccc3ccccc3c2)C(=O)c2ccccc21
- Ki (Trypanothione reductase [11]): 1.1 µM

SMILES: c1ccc(-c2sc(C3(N4CCCC4)CCCCC3)cc2-c2ccc3cc[nH]c3c2)cc1
- Ki (Trypanothione reductase [10]): 10 µM

SMILES: Cc1ccc(C)c(OC2=CC(=O)c3ccncc3C2=O)c1
- Ki (Trypanothione reductase [11]): 6 µM

SMILES: CC(C)CC(NC(=O)c1ccc(-c2ccccc2)o1)C(=O)NC1(C#N)CC1 (configuration not stated)
- IC50 (Cruzipain [12]): 30.3 µM

SMILES: COc1cc(NCc2ccc3nc(N)ncc3c2C)cc(OC)c1OC
- Ki [13]: 0.0066 µM

SMILES: CN(Cc1cnc2nc(N)nc(N)c2n1)c1ccc(C(=O)N[C@@H](CCC(=O)O)C(=O)O)cc1 [METHOTREXATE]
- IC50 [14]: 0.11 µM
- IC50 [15]: 0.038 nM
